Test results from patent US4624956A, “Ulcer and gastric secretion inhibiting 4,5,6,7-tetrahydrothiazole[5,4-c]pyridine derivatives” (priority 1983, dated 1986).
Structures can show the parent of a compound that is named as a salt.

Assays:
[1] = system: oxotremorine syndrome in the mouse; settings: for Anticholinergic activ. (antagonism against oxotremorine syndrome): in vivo, po, 100 mg/kg
Experimental: (§1) Considering that some anti-ulcer agents display, as does atropine, a remarkable but undesired anticholinergic activity, the compound of the present invention was also assessed for its antagonism against the syndrome induced by intraperitoneally (i.p.) administered oxotremorine in mice, according to the method described by G. P. Leszkovsky and L. Tardos (Europ. J. Pharmac. 1971, 15, 310). Given test compound embodiments were administered to groups of 5 male mice, 20-25 g body weight, at the screening dose of 100 mg/kg per os. The degree of peripheral cholinergic activation induced by oxotremorine was measured b salivation and lachrymation, and the degree of central cholinergic activation by the severity of tremors and hypothermia. […] The approximate acute toxicity (LD50) of the compounds of the invention was determined in the mouse and in the rat by single oral administration of increasing doses and measured on the seventh day after treatment. […] Ranitidine, the well known anti-ulcer agent, was used as comparison compound.

[2] = system: basal gastric secretion output HCl; assay: gastric anti-secretory activity in rats, pylorus ligature technique; type: in vivo, rat (Sprague-Dawley male); settings: Column 4, rat, intraduodenal (i.d.), 4 hours, read-out: Antisecretory activ.: inhibition of basal gastric secretion output HCl (ED50)
Experimental: The gastric anti-secretory activity of the compound of the present invention was evaluated in rats by the pylorus ligature technique (H. Shay et al, Gastroenterology 5, 43 1945). Six Sprague-Dawley male rats (110-130 g body weight) for each group were used. Twenty-four hours before the test, the rats were deprived of food while water was maintained. On the day of operation, the pylorus was ligated under light ether anaesthesia. Four hours after the ligature the rats were sacrificed, the stomach secretion collected, centrifuged at 3500 r.p.m. for 10 minutes and the volume, less sediment, was determined. The amount of free hydrochloric acid in the gastric juice was determined by titration against 0.1N sodium hydroxide to an end point of pH 7. All the compounds were injected intraduodenally at the time of ligature. The results, expressed as ED50 mg/kg (the dose which reduced the output of hydrochloride acid by 50% in comparison with control rats) are reported in column 4 of Table 1.

[3] = approximate acute toxicity (LD50) in the mouse, single oral administration; settings: in vivo
Experimental: as §1

[4] = system: gastric ulcers induced in rats by stress; assay: inhibition of stress ulcers in rats (restraint in water at 23° C. for 4 hours); type: in vivo, rat (Charles River male); settings: po, rat, p.o. one hour before stress, number of ulcers
Experimental: The anti-ulcerogenic activity of the compound of the present invention is shown also by the fact that embodiments of the same are active in the test of inhibition of stress ulcers in rats (restraint in water at 23° C. for 4 hours), according to the method of M. Usardi et al. (Prostaglandins, 8, 43, 1974). The tested compounds were administered per os one hour before the stress. Six Charles River male rats (140±10 g body weight), which had fasted for 16 hours, were used for each experimental group. At the end of the stress, the rats were killed and the gastric ulcers evaluated by counting them. The inhibition of gastric ulcerations, evaluated as percentage inhibition of ulcer index (number of ulcers), was expressed as ED50.

[5] = system: ASA induced gastric ulcers in rats; assay: inhibition of acetyl salicyclic acid (ASA) induced gastric ulcers in rats; type: in vivo, rat (male Sprague Dawley); settings: po, 4 h, rat, p.o. 60 min before ASA 100 mg/kg, dose reducing ulcer index by 50%
Experimental: The anti-ulcerogenic activity of the present compound is shown, for example, by the fact that embodiments of the present compound are active in the test of inhibition of acetyl salicyclic acid (ASA) induced gastric ulcers in rats as described by M. Hemmati et al in Pharmacology, 9, 374, 1973. Male Sprague Dawley rats [Crl: CD (SD) BR] (Charles River Italy) weighing 190±10 g, which had fasted for 15 hours, but given free access to water, were administered ASA (100 mg/kg per os in 0.2 ml/100 g b.w.) 60 minutes after the oral treatment with the tested compounds. Gastric ulcerations were evaluated 4 hours after ASA treatment. The inhibition of gastric ulcerations, evaluated as percentage inhibition of ulcer index (sum of ulcer length in millimeters), was expressed as ED50 (dose which reduces gastric ulcerations by 50% in comparison with control rats).

histamine H2-receptor = biological target: T1, histamine H2-receptor (Cavia porcellus, UniProt P47747); assay: histamine H2-receptor antagonist activity in vitro on the guinea pig right atrium; settings: Column 5; guinea pig atria in vitro; screening dose 1 × 10^-5 M; 'More active' continues 'than Ranitid.'; active if it shifts histamine curve right at ≤1×10^-5 M
T1 construct: histamine-induced rate increase
Experimental: The compound of the present invention was assayed for histamine H2 -receptor antagonist activity in vitro on the guinea pig right atrium. Male guinea pigs were killed by a blow on the head and the heart was quickly excised and placed in oxygenated Ringer Lock solution of the following composition (g/l): NaCl 9, KCl 0.42, CaCl2 0.24, NaHCO3 0.5, Glucose 1. Atria were dissected away from the rest of the heart, freed from connective tissue, suspended in a 20 ml organ bath containing Ringer Locke solution thermoregulated at 37° C., and carboxygenated with 95% O2 and 5% CO2. Atria spontaneously beating were allowed to adjust to the bath conditions for at least 30 minutes prior to the experiment. Histamine was added to the bath in cumulative fashion starting from 3×10^-7 M to 1×10^-4 M. The histamine-induced increase in atrial rate was allowed to plateau before the next successive concentration was added. After washing and waiting for the recovery of atria rate, a compound was added 5 minutes before repeating the cumulative dose response curve with histamine. A compound is considered an H2 -receptor antagonist if it is able to shift the dose response curve of histamine to the right at a concentration ≤1×10^-5 M. The results are reported in column 5 of Table 1.

[6] = approximate acute toxicity (LD50) in the rat, single oral administration; settings: in vivo
Experimental: as §1

[7] = system: duodenal ulcers induced in rats by cysteamine; assay: inhibition of duodenal ulcers induced in rats by cysteamine; type: in vivo; settings: po, rat
Experimental: The inhibition of duodenal ulcers, induced in rats by cysteamine, was evaluated for the tested compounds as percentage inhibition of ulcer index [sum of the lesioned areas per rat (mm^2)] according to the method of Fujii Y. et al, Jap. J. Pharm. 25, 663, 1975, and expressed as ED50.

T1 sequence (P47747 whole entry): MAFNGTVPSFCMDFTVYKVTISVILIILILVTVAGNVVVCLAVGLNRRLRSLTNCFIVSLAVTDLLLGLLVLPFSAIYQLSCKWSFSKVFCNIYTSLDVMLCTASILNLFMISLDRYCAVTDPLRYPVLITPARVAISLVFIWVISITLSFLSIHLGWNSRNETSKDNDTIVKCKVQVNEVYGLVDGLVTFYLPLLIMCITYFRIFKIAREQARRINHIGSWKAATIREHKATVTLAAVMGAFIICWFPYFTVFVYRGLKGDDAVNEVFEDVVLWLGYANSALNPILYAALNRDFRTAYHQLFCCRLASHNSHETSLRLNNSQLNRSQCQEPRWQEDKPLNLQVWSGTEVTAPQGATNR

Row | Compound | peripheral and central effects induced by oxotremorine ([1]; oxotremorine i.p., dose of atropine sulfate not given) | ED50 [2] [mg/kg] | LD50 at 168 h [3] [mg/kg] | ED50 [4] [mg/kg] | Anticholinergic activ. (antagonism against oxotremorine syndrome) [1] | ED50 [5] [mg/kg] | Anti-H2 activ. (histamine H2-receptor) | LD50 at 168 h [6] [mg/kg] | ED50 [7] [mg/kg]
1 | CN1[C@@H]2CC[C@H]1C[C@@H](OC(=O)C(CO)c1ccccc1)C2 (stereo partly shown) [Atropine sulfate, reference compound] | suppressed both peripheral and central effects | – | – | – | – | – | – | – | –
2 | CC(C)NC(=S)N1CCc2nc(N)sc2C1 [Example 2, 2-Amino-5-(isopropyl-thiocarbamoyl)-4,5,6,7-tetrahydrothiazolo[5,4-c]pyridine] | – | 1 | 400 to 800 | 2.7 | Inactive | ~5 | – | – | –
3 | CNC(=O)N1CCc2nc(N)sc2C1 [Example 5, 2-Amino-5-(methyl-carbamoyl)-4,5,6,7-tetrahydrothiazolo[5,4-c]pyridine] | – | > 5 | 200 to 400 | > 25 | Inactive | 1.2 | – | – | –
4 | CC(C)NC(=S)N1CCc2nc(NC(=N)N)sc2C1 [Example 15, 2-Guanidino-5-(isopropyl-thiocarbamoyl)-4,5,6,7-tetrahydrothiazolo[5,4-c]pyridine] | – | < 5 | 400 to 800 | < 50 | Inactive | 0.5 | Active | – | –
5 | CC(C)NC(=O)N1CCc2nc(NC(=N)N)sc2C1 [Example 16, 2-Guanidino-5-(isopropyl-carbamoyl)-4,5,6,7-tetrahydrothiazolo[5,4-c]pyridine] | – | 0.33 | 200 to 400 | 2.9 | Inactive | 0.017 | More active | > 800 | 0.4
6 | N=C(N)Nc1nc2c(s1)CN(C(=O)NC1CC1)CC2 [Example 22, 2-Guanidino-5-(cyclopropyl-carbamoyl)-4,5,6,7-tetrahydrothiazolo[5,4,-c]pyridine] | – | 1.7 | > 800 | 20.2 | Inactive | 0.08 | More active | > 800 | 0.3
7 | CNC(=C[N+](=O)[O-])NCCSCc1ccc(CN(C)C)o1 [Ranitidine, reference compound] | – | 7 | > 800 | 6.2 | Inactive | 0.5 | – | > 800 | 10.7
